{"source": "paper PMC4770093", "about": "“The role of kinetic context in apparent biased agonism at GPCRs” (Nature Communications, 2016)", "key": {"D2LR [1]": {"target": "T1, D2LR (Homo sapiens, UniProt P14416)", "T1 sequence (P14416 whole entry)": "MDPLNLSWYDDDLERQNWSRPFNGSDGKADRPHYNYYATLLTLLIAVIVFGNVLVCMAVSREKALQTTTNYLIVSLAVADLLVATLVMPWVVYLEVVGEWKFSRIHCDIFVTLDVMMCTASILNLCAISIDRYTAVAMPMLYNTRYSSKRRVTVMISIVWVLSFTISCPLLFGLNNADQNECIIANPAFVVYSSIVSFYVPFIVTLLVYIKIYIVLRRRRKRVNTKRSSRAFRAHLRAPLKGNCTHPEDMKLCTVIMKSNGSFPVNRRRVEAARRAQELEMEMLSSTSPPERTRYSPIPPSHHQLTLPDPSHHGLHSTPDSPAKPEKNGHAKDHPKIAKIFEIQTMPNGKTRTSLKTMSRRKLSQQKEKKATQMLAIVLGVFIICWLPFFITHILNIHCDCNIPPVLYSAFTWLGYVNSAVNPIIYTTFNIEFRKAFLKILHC", "experiment": "biochemical", "description": "(§1) The cells were harvested in PBS containing 2 mM EDTA and centrifuged at 300 g for 3 min. The resulting pellet was resuspended in ice-cold assay buffer (20 mM HEPES, 100 mM NaCl, 6 mM MgCl2, 1 mM EGTA and 1 mM EDTA pH 7.4) and the centrifugation step was repeated. The intact cell pellet was then resuspended in assay buffer and homogenized using a Polytron homogenizer. After centrifugation (1,000 g, 10 min), the pellet was discarded and the supernatant was recentrifuged at 30,000 g for 1 h at 4 °C using a Sorvall Evolution RC ultracentrifuge (Thermo Scientific). The resulting pellet was resuspended in assay buffer and stored in 250 μl aliquots at −80 °C. Membrane protein concentration was determined using the method of Bradford.\n(§2) All radioligand binding experiments were conducted at 37 °C in a 1-ml reaction volume in assay buffer (20 mM HEPES, 100 mM NaCl, 6 mM MgCl2, 1 mM EGTA and 1 mM EDTA pH 7.4) containing 100 μM GppNHp and 0.1% ascorbic acid. In all cases, nonspecific binding was determined in the presence of 10 μM haloperidol. […] Filter-bound radioactivity was measured by scintillation spectrometry after the addition of 3.5 ml of Ultima Gold (PerkinElmer) using a Tri-Carb 2900TR liquid scintillation counter (PerkinElmer).\n(§3) where Y denotes the percentage-specific binding, Top and Bottom denote the maximal and minimal asymptotes, respectively, IC50 denotes the X-value when the response is midway between Bottom and Top, and nH denotes the Hill slope factor. IC50 values obtained from the inhibition curves were converted to Ki values using the Cheng and Prusoff equation[61]."}, "D2LR [2]": {"target": "T1, D2LR", "experiment": "[3H]spiperone kinetic (dissociation, association, competition association) binding", "set-up": "expressed in transfected cells", "details": "[3H]spiperone tracer", "description": "as §1, §2\nThe kinetic parameters of unlabelled agonists were determined using the equations described by Motulsky and Mahan[31]. […]"}, "D2LR [3]": {"target": "T1, D2LR", "experiment": "Quantification of biased agonism between pathways (operational model, LogBias)", "format": "cell-based", "set-up": "expressed in transfected cells", "excerpt": "where Top and Bottom represent the maximal and minimal asymptote of the dose–response curve, [A] is the molar concentration of agonist and EC50 is the molar concentration of agonist required to give a response half way between bottom and top. Dose–response data were fitted to the following form of the operational model of agonism[12] to allow the quantification of biased agonism\nwhere Em is the maximal possible response of the system, Basal is the basal level of response, KA represents the equilibrium dissociation constant of the agonist (A) and τ is an index of the signalling efficacy of the agonist that is defined as RT/KE, where RT is the total number of receptors and KE is the coupling efficiency of each agonist-occupied receptor, and n is the slope of the transducer function that links occupancy to response. The analysis assumes that the transduction machinery used for a given cellular pathway are the same for all agonists, such that the Em and transducer slope (n) are shared between agonists. Data for all compounds for each pathway were fit globally, to determine values of KA and τ. Biased agonism was quantified as previously described. […] The relative bias can then be calculated for each agonist at the two different signalling pathways by subtracting the Δlog(τ/KA) of one pathway from the other to give a ΔΔlog(τ/KA) value, which is a measure of bias. […] All affinity (pKi or pKA), potency (pEC50) and transduction ratio (log(τ/KA)) parameters were estimated as logarithms. When fold changes in bias are described, this was calculated by converting values of ΔΔlog(τ/KA) to the corresponding antilog value. […] Thus, as the application of t-tests and analyses of variance assume Gaussian distribution, estimating the parameters as logarithms allows valid statistical comparison. All results are expressed as the mean±s.e.m. As such, we performed a Brown–Forsythe test (Graphpad prism 6) to assure ourselves of equal variance when such parameters are compared."}, "D2LR [4]": {"target": "T1, D2LR", "details": "0.1 nM [3H]spiperone; 3 h at 37 °C; 100 μM GppNHp", "description": "as §1, §2, §3"}, "[5]": {"details": "5 minute timepoint, dopamine as reference agonist"}}, "note": "Like-named read-outs stand apart in the source and are kept apart here.", "data": [{"smiles": "O=c1[nH]c2cccc(N3CCN(Cc4cccc(-c5ccccc5)c4)CC3)c2o1", "note": "[Bifeprunox, bifeprunox]", "values": [{"measurement": "Ki", "setting": "D2LR [1]", "value": 0.0437, "unit": "nM"}, {"measurement": "koff", "setting": "D2LR [2]; Flp-In-CHO-D2LR membranes, 100 μM GppNHp, 37 °C", "value": 0.000167, "unit": "s⁻¹"}, {"measurement": "Kd", "setting": "D2LR [2]; read-out: pKd (affinity determined from kinetic parameters) (converted)", "value": 0.1, "unit": "nM"}, {"measurement": "LogBias CI – pERK1/2", "setting": "D2LR [3]; [5]", "value": "0.99 ± 0.14"}, {"measurement": "LogBias Gαi1 – CI", "setting": "D2LR [3]; [5]", "value": "1.68 ± 0.16"}, {"measurement": "LogBias Gαi1 – GαoB", "setting": "D2LR [3]; [5]", "value": "1.17 ± 0.19"}, {"measurement": "LogBias Gαi1 – cAMP", "setting": "D2LR [3]; [5]", "value": "1.61 ± 0.16"}, {"measurement": "LogBias Gαi1 – pERK1/2", "setting": "D2LR [3]; [5]", "value": "2.67 ± 0.18"}, {"measurement": "LogBias GαoB – CI", "setting": "D2LR [3]; [5]", "value": "0.51 ± 0.15"}, {"measurement": "LogBias GαoB – cAMP", "setting": "D2LR [3]; [5]", "value": "0.43 ± 0.14"}, {"measurement": "LogBias GαoB – pERK1/2", "setting": "D2LR [3]; [5]", "value": "1.50 ± 0.17"}, {"measurement": "LogBias cAMP – CI", "setting": "D2LR [3]; [5]", "value": "0.08 ± 0.11"}, {"measurement": "LogBias cAMP – pERK1/2", "setting": "D2LR [3]; [5]", "value": "1.06 ± 0.13"}, {"measurement": "LogBias β-arr2 – CI", "setting": "D2LR [3]; [5]", "value": "-0.33 ± 0.22"}, {"measurement": "LogBias β-arr2 – Gαi1", "setting": "D2LR [3]; [5]", "value": "-2.01 ± 0.25"}, {"measurement": "LogBias β-arr2 – GαoB", "setting": "D2LR [3]; [5]", "value": "-0.84 ± 0.24"}, {"measurement": "LogBias β-arr2 – cAMP", "setting": "D2LR [3]; [5]", "value": "-0.41 ± 0.22"}, {"measurement": "LogBias β-arr2 – pERK1/2", "setting": "D2LR [3]; [5]", "value": "0.66 ± 0.24"}]}, {"smiles": "CN1CCN(c2cccc3[nH]c(=O)oc23)CC1", "note": "[Pardoprunox, pardoprunox]", "values": [{"measurement": "pKi (affinity from competition binding experiments using [3H]spiperone)", "setting": "D2LR [4]", "value": "7.63 ± 0.06"}, {"measurement": "LogBias CI – pERK1/2", "setting": "D2LR [3]; [5]", "value": "0.24 ± 0.12"}, {"measurement": "LogBias Gαi1 – CI", "setting": "D2LR [3]; [5]", "value": "0.19 ± 0.18"}, {"measurement": "LogBias Gαi1 – GαoB", "setting": "D2LR [3]; [5]", "value": "0.48 ± 0.21"}, {"measurement": "LogBias Gαi1 – cAMP", "setting": "D2LR [3]; [5]", "value": "0.35 ± 0.17"}, {"measurement": "LogBias Gαi1 – pERK1/2", "setting": "D2LR [3]; [5]", "value": "0.43 ± 0.19"}, {"measurement": "LogBias GαoB – CI", "setting": "D2LR [3]; [5]", "value": "-0.29 ± 0.15"}, {"measurement": "LogBias GαoB – cAMP", "setting": "D2LR [3]; [5]", "value": "-0.13 ± 0.15"}, {"measurement": "LogBias GαoB – pERK1/2", "setting": "D2LR [3]; [5]", "value": "-0.05 ± 0.16"}, {"measurement": "LogBias cAMP – CI", "setting": "D2LR [3]; [5]", "value": "-0.16 ± 0.10"}, {"measurement": "LogBias cAMP – pERK1/2", "setting": "D2LR [3]; [5]", "value": "0.08 ± 0.12"}, {"measurement": "LogBias β-arr2 – CI", "setting": "D2LR [3]; [5]", "value": "-0.28 ± 0.33"}, {"measurement": "LogBias β-arr2 – Gαi1", "setting": "D2LR [3]; [5]", "value": "-0.47 ± 0.36"}, {"measurement": "LogBias β-arr2 – GαoB", "setting": "D2LR [3]; [5]", "value": "0.01 ± 0.34"}, {"measurement": "LogBias β-arr2 – cAMP", "setting": "D2LR [3]; [5]", "value": "-0.12 ± 0.33"}, {"measurement": "LogBias β-arr2 – pERK1/2", "setting": "D2LR [3]; [5]", "value": "-0.04 ± 0.33"}]}, {"smiles": "CCCN(CCC)CCc1cccc2c1CC(=O)N2", "note": "[Ropinirole, ropinirole]", "values": [{"measurement": "Ki", "setting": "D2LR [1]", "value": 2510, "unit": "nM"}, {"measurement": "LogBias CI – pERK1/2", "setting": "D2LR [3]", "value": "-0.11 ± 0.10"}, {"measurement": "LogBias Gαi1 – pERK1/2", "setting": "D2LR [3]", "value": "-0.31 ± 0.15"}, {"measurement": "LogBias GαoB – pERK1/2", "setting": "D2LR [3]", "value": "-0.04 ± 0.14"}, {"measurement": "LogBias cAMP – pERK1/2", "setting": "D2LR [3]", "value": "-0.27 ± 0.10"}, {"measurement": "LogBias β-arr2 – pERK1/2", "setting": "D2LR [3]", "value": "0.26 ± 0.21"}, {"measurement": "LogBias Gαi1 – CI", "setting": "D2LR [3]; [5]", "value": "-0.19 ± 0.15"}, {"measurement": "LogBias Gαi1 – GαoB", "setting": "D2LR [3]; [5]", "value": "-0.26 ± 0.18"}, {"measurement": "LogBias Gαi1 – cAMP", "setting": "D2LR [3]; [5]", "value": "-0.03 ± 0.15"}, {"measurement": "LogBias GαoB – CI", "setting": "D2LR [3]; [5]", "value": "0.07 ± 0.13"}, {"measurement": "LogBias GαoB – cAMP", "setting": "D2LR [3]; [5]", "value": "0.23 ± 0.13"}, {"measurement": "LogBias cAMP – CI", "setting": "D2LR [3]; [5]", "value": "-0.16 ± 0.09"}, {"measurement": "LogBias β-arr2 – CI", "setting": "D2LR [3]; [5]", "value": "0.38 ± 0.21"}, {"measurement": "LogBias β-arr2 – Gαi1", "setting": "D2LR [3]; [5]", "value": "0.57 ± 0.24"}, {"measurement": "LogBias β-arr2 – GαoB", "setting": "D2LR [3]; [5]", "value": "0.31 ± 0.23"}, {"measurement": "LogBias β-arr2 – cAMP", "setting": "D2LR [3]; [5]", "value": "0.54 ± 0.21"}]}, {"smiles": "CCCN1CCC[C@@H](c2cccc(O)c2)C1", "note": "[S-3PPP, (S)-(-)-3-(3-hydroxyphenyl)-N-propylpiperidine]", "values": [{"measurement": "bias between the activation of Gαi1 and all other assays apart from the activation of GαoB", "setting": "D2LR [3]; 5 min, reference dopamine", "value": "less than tenfold"}, {"measurement": "LogBias Gαi1 – CI", "setting": "D2LR [3]; [5]", "value": "0.64 ± 0.19"}, {"measurement": "LogBias Gαi1 – GαoB", "setting": "D2LR [3]; [5]", "value": "0.27 ± 0.21"}, {"measurement": "LogBias Gαi1 – cAMP", "setting": "D2LR [3]; [5]", "value": "0.83 ± 0.17"}, {"measurement": "LogBias GαoB – CI", "setting": "D2LR [3]; [5]", "value": "0.37 ± 0.18"}, {"measurement": "LogBias GαoB – cAMP", "setting": "D2LR [3]; [5]", "value": "0.56 ± 0.16"}, {"measurement": "LogBias cAMP – CI", "setting": "D2LR [3]; [5]", "value": "-0.19 ± 0.13"}]}]}
